Assay results published in publication PMC6891286, “Towards the Development of an In vivo Chemical Probe for Cyclin G Associated Kinase (GAK)” (Molecules, 2019).

Columns and labels:
Assay in all cases: KINOMEscan
Assay type in all cases: binding
EPHA6 = target: T1, EPHA6 (Homo sapiens, UniProt Q9UF33); conditions: 35 at 1 µM; read-out: % inhibition
T1 construct: purchased Eurofins DiscoverX (KINOMEscan)
Protocol: (§1) KinomeScan Assay on 35 was performed as previously described at EuroFins DiscoverX (Fremont, CA, USA).

BRAF = target: T2, BRAF (Homo sapiens, UniProt P15056); conditions: 35 at 1 µM; read-out: % inhibition
T2 construct: purchased Eurofins DiscoverX (KINOMEscan)
Protocol: as §1

MAPKAPK2 = target: T3, MAPKAPK2 (Homo sapiens, UniProt P49137); conditions: 35 at 1 µM; read-out: % inhibition
T3 construct: purchased Eurofins DiscoverX (KINOMEscan)
T3 sequence (P49137 whole entry): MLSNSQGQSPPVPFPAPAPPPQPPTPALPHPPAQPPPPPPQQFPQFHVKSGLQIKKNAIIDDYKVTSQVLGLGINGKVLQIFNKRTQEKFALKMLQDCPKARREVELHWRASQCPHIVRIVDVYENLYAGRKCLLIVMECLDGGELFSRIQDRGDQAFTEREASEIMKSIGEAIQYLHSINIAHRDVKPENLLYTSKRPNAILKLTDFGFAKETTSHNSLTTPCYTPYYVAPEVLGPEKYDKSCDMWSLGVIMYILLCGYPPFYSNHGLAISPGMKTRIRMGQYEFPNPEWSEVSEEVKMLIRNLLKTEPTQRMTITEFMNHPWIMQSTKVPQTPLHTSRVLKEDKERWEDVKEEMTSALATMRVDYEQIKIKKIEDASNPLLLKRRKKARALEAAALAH
Protocol: as §1

HIPK2 = target: T4, HIPK2 (Homo sapiens, UniProt Q9H2X6); conditions: 35 at 1 µM; read-out: % inhibition
T4 construct: purchased Eurofins DiscoverX (KINOMEscan)
T4 sequence (Q9H2X6 whole entry): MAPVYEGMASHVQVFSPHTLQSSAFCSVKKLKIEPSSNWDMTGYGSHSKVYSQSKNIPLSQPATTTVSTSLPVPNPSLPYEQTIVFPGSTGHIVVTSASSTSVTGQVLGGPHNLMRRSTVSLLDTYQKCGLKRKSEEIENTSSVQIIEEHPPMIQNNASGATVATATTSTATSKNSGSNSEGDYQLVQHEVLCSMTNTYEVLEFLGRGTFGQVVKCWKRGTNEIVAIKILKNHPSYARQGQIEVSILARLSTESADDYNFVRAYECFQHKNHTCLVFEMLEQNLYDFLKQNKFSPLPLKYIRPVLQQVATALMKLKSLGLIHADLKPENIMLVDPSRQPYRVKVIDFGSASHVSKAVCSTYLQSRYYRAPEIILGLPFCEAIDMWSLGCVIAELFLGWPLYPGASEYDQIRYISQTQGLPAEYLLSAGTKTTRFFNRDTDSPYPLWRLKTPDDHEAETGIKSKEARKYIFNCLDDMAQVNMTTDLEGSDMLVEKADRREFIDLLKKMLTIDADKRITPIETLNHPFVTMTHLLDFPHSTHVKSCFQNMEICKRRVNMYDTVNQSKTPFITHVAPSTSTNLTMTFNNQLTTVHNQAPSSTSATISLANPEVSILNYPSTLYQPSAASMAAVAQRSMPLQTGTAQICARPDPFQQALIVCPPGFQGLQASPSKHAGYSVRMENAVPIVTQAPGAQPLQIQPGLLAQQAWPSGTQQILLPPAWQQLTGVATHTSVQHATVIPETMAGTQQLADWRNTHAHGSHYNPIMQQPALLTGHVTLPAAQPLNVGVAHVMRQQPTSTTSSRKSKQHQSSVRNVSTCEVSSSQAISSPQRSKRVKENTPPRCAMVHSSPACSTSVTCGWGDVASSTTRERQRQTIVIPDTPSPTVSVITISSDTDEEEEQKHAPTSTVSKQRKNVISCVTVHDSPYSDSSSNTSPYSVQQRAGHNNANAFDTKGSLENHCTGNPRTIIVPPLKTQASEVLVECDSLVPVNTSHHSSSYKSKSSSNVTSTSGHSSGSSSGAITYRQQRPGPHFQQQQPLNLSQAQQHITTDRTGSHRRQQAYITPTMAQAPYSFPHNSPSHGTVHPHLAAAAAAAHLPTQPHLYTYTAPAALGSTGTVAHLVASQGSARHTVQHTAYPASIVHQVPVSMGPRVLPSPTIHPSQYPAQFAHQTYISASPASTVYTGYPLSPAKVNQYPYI
Protocol: as §1

CAMK2G = target: T5, CAMK2G (Homo sapiens, UniProt Q13555); conditions: 35 at 1 µM; read-out: % inhibition
T5 construct: purchased Eurofins DiscoverX (KINOMEscan)
Protocol: as §1

LIMK2 = target: T6, LIMK2 (Homo sapiens, UniProt P53671); conditions: 35 at 1 µM; read-out: % inhibition
T6 construct: purchased Eurofins DiscoverX (KINOMEscan)
Protocol: as §1

PHKG1 = target: T7, PHKG1 (Homo sapiens, UniProt Q16816); conditions: 35 at 1 µM; read-out: % inhibition
T7 construct: purchased Eurofins DiscoverX (KINOMEscan)
Protocol: as §1

FES = target: T8, FES (Homo sapiens, UniProt P07332); conditions: 35 at 1 µM; read-out: % inhibition
T8 construct: purchased Eurofins DiscoverX (KINOMEscan)
Protocol: as §1

SRMS = target: T9, SRMS (Homo sapiens, UniProt Q9H3Y6); conditions: 35 at 1 µM; read-out: % inhibition
T9 construct: purchased Eurofins DiscoverX (KINOMEscan)
Protocol: as §1

TGFBR1 = target: T10, TGFBR1 (Homo sapiens, UniProt P36897); conditions: 35 at 1 µM; read-out: % inhibition
T10 construct: purchased Eurofins DiscoverX (KINOMEscan)
Protocol: as §1

DAPK1 = target: T11, DAPK1 (Homo sapiens, UniProt P53355); conditions: 35 at 1 µM; read-out: % inhibition
T11 construct: purchased Eurofins DiscoverX (KINOMEscan)
Protocol: as §1

CAMK1 = target: T12, CAMK1 (Homo sapiens, UniProt Q14012); conditions: 35 at 1 µM; read-out: % inhibition
T12 construct: purchased Eurofins DiscoverX (KINOMEscan)
Protocol: as §1

MKNK2 = target: T13, MKNK2 (Homo sapiens, UniProt Q9HBH9); conditions: 35 at 1 µM; read-out: % inhibition
T13 construct: purchased Eurofins DiscoverX (KINOMEscan)
T13 sequence (Q9HBH9 whole entry): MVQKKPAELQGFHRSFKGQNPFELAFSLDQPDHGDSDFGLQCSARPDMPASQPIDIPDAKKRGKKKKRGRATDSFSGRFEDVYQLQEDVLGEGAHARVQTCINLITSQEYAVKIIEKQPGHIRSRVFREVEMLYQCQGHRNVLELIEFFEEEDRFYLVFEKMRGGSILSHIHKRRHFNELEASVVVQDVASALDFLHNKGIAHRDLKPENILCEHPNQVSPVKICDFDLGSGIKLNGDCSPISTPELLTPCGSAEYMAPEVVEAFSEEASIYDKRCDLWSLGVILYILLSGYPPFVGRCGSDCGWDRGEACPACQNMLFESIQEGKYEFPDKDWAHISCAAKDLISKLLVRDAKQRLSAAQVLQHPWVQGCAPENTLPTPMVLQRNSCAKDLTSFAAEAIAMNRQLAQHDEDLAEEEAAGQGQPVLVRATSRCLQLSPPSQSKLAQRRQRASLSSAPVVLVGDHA
Protocol: as §1

ASK1 = target: T14, ASK1 (Homo sapiens, UniProt Q99683); conditions: 35 at 1 µM; read-out: % inhibition
T14 construct: purchased Eurofins DiscoverX (KINOMEscan)
Protocol: as §1

HASPIN = target: T15, HASPIN (Homo sapiens, UniProt Q8TF76); conditions: 35 at 1 µM; read-out: % inhibition
T15 construct: purchased Eurofins DiscoverX (KINOMEscan)
Protocol: as §1

STK36 = target: T16, STK36 (Homo sapiens, UniProt Q9NRP7); conditions: 35 at 1 µM; read-out: % inhibition
T16 construct: purchased Eurofins DiscoverX (KINOMEscan)
T16 sequence (Q9NRP7 whole entry): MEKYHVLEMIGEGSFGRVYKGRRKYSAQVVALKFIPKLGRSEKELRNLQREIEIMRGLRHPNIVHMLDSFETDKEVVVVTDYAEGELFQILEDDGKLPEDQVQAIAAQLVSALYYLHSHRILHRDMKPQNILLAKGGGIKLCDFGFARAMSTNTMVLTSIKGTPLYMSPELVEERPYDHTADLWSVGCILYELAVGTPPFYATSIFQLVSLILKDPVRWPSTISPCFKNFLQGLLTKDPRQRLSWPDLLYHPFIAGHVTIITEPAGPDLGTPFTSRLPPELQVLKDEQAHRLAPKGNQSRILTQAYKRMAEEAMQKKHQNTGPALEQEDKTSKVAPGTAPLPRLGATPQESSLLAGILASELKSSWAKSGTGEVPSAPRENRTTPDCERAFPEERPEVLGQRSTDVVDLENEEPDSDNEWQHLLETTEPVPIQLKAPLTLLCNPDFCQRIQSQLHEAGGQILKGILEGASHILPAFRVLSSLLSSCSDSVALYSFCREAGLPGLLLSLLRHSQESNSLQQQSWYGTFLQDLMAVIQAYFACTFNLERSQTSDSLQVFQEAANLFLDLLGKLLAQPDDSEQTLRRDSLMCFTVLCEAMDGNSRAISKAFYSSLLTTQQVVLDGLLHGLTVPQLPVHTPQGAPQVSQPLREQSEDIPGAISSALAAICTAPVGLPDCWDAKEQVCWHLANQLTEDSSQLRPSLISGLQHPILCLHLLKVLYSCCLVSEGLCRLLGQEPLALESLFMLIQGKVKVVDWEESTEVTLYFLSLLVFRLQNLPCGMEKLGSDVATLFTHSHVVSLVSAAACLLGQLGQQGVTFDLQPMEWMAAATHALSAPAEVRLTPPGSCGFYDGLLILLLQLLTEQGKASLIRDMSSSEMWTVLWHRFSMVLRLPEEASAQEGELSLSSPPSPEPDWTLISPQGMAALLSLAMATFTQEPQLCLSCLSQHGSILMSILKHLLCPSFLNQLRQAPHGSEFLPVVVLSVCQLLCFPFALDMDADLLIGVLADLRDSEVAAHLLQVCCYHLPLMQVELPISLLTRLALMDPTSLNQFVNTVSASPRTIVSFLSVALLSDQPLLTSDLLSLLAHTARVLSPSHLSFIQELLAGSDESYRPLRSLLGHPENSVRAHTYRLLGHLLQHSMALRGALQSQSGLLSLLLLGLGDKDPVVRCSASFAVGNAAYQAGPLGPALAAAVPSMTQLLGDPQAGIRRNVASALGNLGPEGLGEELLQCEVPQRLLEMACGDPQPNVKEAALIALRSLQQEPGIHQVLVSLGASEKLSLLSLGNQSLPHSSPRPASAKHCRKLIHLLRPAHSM
Protocol: as §1

AURKB = target: T17, AURKB (Homo sapiens, UniProt Q96GD4); conditions: 35 at 1 µM; read-out: % inhibition
T17 construct: purchased Eurofins DiscoverX (KINOMEscan)
Protocol: as §1

p38-delta = target: T18, p38-delta (Homo sapiens, UniProt O15264); conditions: 35 at 1 µM; read-out: % inhibition
T18 construct: purchased Eurofins DiscoverX (KINOMEscan)
Protocol: as §1

ITK = target: T19, ITK (Homo sapiens, UniProt Q08881); conditions: 35 at 1 µM; read-out: % inhibition
T19 construct: purchased Eurofins DiscoverX (KINOMEscan)
Protocol: as §1

EIF2AK1 = target: T20, EIF2AK1 (Homo sapiens, UniProt Q9BQI3); conditions: 35 at 1 µM; read-out: % inhibition
T20 construct: purchased Eurofins DiscoverX (KINOMEscan)
Protocol: as §1

[1] = target: T21, ABL1(F317L)-nonphosphorylated (Homo sapiens, UniProt P00519, F317L); conditions: 35 at 1 µM; read-out: % inhibition
T21 construct: purchased Eurofins DiscoverX (KINOMEscan)
Protocol: as §1

FGFR4 = target: T22, FGFR4 (Homo sapiens, UniProt P22455); conditions: 35 at 1 µM; read-out: % inhibition
T22 construct: purchased Eurofins DiscoverX (KINOMEscan)
Protocol: as §1

GCN2(Kin.Dom.2,S808G) = target: T23, GCN2(Kin.Dom.2,S808G) (Homo sapiens, UniProt Q9P2K8, S808G); conditions: 35 at 1 µM; read-out: % inhibition
T23 construct: GCN2(Kin.Dom.2,S808G); purchased Eurofins DiscoverX (KINOMEscan)
Protocol: as §1

HIPK1 = target: T24, HIPK1 (Homo sapiens, UniProt Q86Z02); conditions: 35 at 1 µM; read-out: % inhibition
T24 construct: purchased Eurofins DiscoverX (KINOMEscan)
Protocol: as §1

RAF1 = target: T25, RAF1 (Homo sapiens, UniProt P04049); conditions: 35 at 1 µM; read-out: % inhibition
T25 construct: purchased Eurofins DiscoverX (KINOMEscan)
Protocol: as §1

PKAC-beta = target: T26, PKAC-beta (Homo sapiens, UniProt P22694); conditions: 35 at 1 µM; read-out: % inhibition
T26 construct: purchased Eurofins DiscoverX (KINOMEscan)
Protocol: as §1

CDK4 = target: T27, CDK4 (Homo sapiens, UniProt P11802); conditions: 35 at 1 µM; read-out: % inhibition
T27 construct: purchased Eurofins DiscoverX (KINOMEscan)
Protocol: as §1

PIK3C2G = target: T28, PIK3C2G (Homo sapiens, UniProt O75747); conditions: 35 at 1 µM; read-out: % inhibition
T28 construct: purchased Eurofins DiscoverX (KINOMEscan)
Protocol: as §1

GRK2 = target: T29, GRK2 (Homo sapiens, UniProt P25098); conditions: 35 at 1 µM; read-out: % inhibition
T29 construct: purchased Eurofins DiscoverX (KINOMEscan)
Protocol: as §1

BTK = target: T30, BTK (Homo sapiens, UniProt Q06187); conditions: 35 at 1 µM; read-out: % inhibition
T30 construct: purchased Eurofins DiscoverX (KINOMEscan)
Protocol: as §1

WEE1 = target: T31, WEE1 (Homo sapiens, UniProt P30291); conditions: 35 at 1 µM; read-out: % inhibition
T31 construct: purchased EuroFins DiscoverX (Fremont, CA, USA)
Protocol: as §1

IRAK4 = target: T32, IRAK4 (Homo sapiens, UniProt Q9NWZ3); conditions: 35 at 1 µM; read-out: % inhibition
T32 construct: purchased Eurofins DiscoverX (KINOMEscan)
Protocol: as §1

PCTK2 = target: T33, PCTK2 (Homo sapiens, UniProt Q00537); conditions: 35 at 1 µM; read-out: % inhibition
T33 construct: purchased Eurofins DiscoverX (KINOMEscan)
T33 sequence (Q00537 whole entry): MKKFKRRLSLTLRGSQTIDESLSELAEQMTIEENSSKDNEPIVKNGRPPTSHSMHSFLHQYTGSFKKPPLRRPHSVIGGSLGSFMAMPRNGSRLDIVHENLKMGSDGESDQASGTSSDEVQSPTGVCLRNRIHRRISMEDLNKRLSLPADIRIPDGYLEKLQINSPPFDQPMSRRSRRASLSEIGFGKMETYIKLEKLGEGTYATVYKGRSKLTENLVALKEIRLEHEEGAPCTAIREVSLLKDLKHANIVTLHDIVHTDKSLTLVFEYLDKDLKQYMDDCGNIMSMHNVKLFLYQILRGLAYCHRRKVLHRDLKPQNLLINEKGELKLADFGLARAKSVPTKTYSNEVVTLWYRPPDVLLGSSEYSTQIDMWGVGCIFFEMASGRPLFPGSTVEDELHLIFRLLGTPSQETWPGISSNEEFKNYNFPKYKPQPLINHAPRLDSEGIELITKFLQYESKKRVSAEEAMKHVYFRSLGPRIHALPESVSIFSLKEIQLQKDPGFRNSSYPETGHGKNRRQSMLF
Protocol: as §1

WNK3 = target: T34, WNK3 (Homo sapiens, UniProt Q9BYP7); conditions: 35 at 1 µM; read-out: % inhibition
T34 construct: purchased Eurofins DiscoverX (KINOMEscan)
Protocol: as §1

AMPK-alpha1 = target: T35, AMPK-alpha1 (Homo sapiens, UniProt Q13131); conditions: 35 at 1 µM; read-out: % inhibition
T35 construct: purchased Eurofins DiscoverX (KINOMEscan)
Protocol: as §1

TGFBR2 = target: T36, TGFBR2 (Homo sapiens, UniProt P37173)
T36 construct: purchased Eurofins DiscoverX (KINOMEscan)
T36 sequence (P37173 23-567): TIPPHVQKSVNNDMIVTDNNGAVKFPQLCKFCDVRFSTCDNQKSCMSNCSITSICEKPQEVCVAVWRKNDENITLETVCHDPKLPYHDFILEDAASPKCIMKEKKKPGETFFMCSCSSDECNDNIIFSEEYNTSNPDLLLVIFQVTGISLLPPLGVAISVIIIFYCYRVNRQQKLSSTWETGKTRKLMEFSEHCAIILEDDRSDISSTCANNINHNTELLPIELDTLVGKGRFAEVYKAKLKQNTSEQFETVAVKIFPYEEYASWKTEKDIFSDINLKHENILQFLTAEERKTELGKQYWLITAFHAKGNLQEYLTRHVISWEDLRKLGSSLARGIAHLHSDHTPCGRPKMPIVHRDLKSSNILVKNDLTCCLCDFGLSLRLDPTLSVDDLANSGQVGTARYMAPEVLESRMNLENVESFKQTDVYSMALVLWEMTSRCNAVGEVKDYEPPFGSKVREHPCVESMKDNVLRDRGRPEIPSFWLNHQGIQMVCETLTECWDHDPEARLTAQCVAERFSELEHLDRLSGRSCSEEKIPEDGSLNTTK
Protocol: as §1

[2] = target: T37, TYK2(JH2domain-pseudokinase) (Homo sapiens, UniProt P29597); conditions: 35 at 1 µM; read-out: % inhibition
T37 construct: TYK2(JH2domain-pseudokinase); purchased Eurofins DiscoverX (KINOMEscan)
Protocol: as §1

GRK3 = target: T38, GRK3 (Homo sapiens, UniProt P35626); conditions: 35 at 1 µM; read-out: % inhibition
T38 construct: purchased Eurofins DiscoverX (KINOMEscan)
Protocol: as §1

CLK3 = target: T39, CLK3 (Homo sapiens, UniProt P49761); conditions: 35 at 1 µM; read-out: % inhibition
T39 construct: purchased Eurofins DiscoverX (KINOMEscan)
Protocol: as §1

SRPK3 = target: T40, SRPK3 (Homo sapiens, UniProt Q9UPE1); conditions: 35 at 1 µM; read-out: % inhibition
T40 construct: purchased Eurofins DiscoverX (KINOMEscan)
T40 sequence (Q9UPE1 whole entry): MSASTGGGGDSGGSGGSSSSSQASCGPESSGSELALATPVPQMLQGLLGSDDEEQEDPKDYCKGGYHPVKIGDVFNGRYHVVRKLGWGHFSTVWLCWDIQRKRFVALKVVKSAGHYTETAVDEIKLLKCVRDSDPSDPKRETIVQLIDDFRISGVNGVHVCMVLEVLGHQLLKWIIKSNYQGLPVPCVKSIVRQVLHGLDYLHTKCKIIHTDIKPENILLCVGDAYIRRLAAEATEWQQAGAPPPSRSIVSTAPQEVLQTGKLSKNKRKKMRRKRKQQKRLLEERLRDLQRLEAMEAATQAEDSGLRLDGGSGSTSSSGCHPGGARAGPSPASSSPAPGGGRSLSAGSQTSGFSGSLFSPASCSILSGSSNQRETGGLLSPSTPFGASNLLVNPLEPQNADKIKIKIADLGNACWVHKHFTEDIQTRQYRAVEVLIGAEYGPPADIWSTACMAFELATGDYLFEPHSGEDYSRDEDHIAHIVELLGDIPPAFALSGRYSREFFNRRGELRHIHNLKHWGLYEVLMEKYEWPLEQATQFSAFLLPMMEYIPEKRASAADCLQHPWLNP
Protocol: as §1

RIOK1 = target: T41, RIOK1 (Homo sapiens, UniProt Q9BRS2); conditions: 35 at 1 µM; read-out: % inhibition
T41 construct: purchased Eurofins DiscoverX (KINOMEscan)
Protocol: as §1

EPHA3 = target: T42, EPHA3 (Homo sapiens, UniProt P29320); conditions: 35 at 1 µM; read-out: % inhibition
T42 construct: purchased Eurofins DiscoverX (KINOMEscan)
Protocol: as §1

`Brc1ccc2nccc(Nc3ccc4cn[nH]c4c3)c2c1` [Compound 35, 6-Bromo-N-(1H-indazol-6-yl)quinolin-4-amine] showed an activity at 1 µM (EPHA6) of 100%, an activity at 1 µM (BRAF) of 92% and an activity at 1 µM (MAPKAPK2) of 100%. The activity at 1 µM (HIPK2) was 88%, the activity at 1 µM (CAMK2G) was 100% and the activity at 1 µM (LIMK2) was 100%. For the same compound, the activity at 1 µM (PHKG1) was 100%, the activity at 1 µM (FES) was 100% and the activity at 1 µM (SRMS) was 87%. The activity at 1 µM (TGFBR1) was 100%, the activity at 1 µM (DAPK1) was 100% and the activity at 1 µM (CAMK1) was 100%. For the same compound, the activity at 1 µM (MKNK2) was 63%, the activity at 1 µM (ASK1) was 100% and the activity at 1 µM (HASPIN) was 79%. For the same compound, the activity at 1 µM (STK36) was 100%, the activity at 1 µM (AURKB) was 90% and the activity at 1 µM (p38-delta) was 100%. It also gave an activity at 1 µM (ITK) of 100%, an activity at 1 µM (EIF2AK1) of 92% and an activity at 1 µM [1] of 78%. It also gave an activity at 1 µM (FGFR4) of 100%, an activity at 1 µM (GCN2(Kin.Dom.2,S808G)) of 59% and an activity at 1 µM (HIPK1) of 53%. It also gave an activity at 1 µM (RAF1) of 100%, an activity at 1 µM (PKAC-beta) of 100% and an activity at 1 µM (CDK4) of 78%. The activity at 1 µM (PIK3C2G) was 100%, the activity at 1 µM (GRK2) was 100% and the activity at 1 µM (BTK) was 100%. For the same compound, the activity at 1 µM (WEE1) was 100%, the activity at 1 µM (IRAK4) was 100% and the activity at 1 µM (PCTK2) was 100%. The activity at 1 µM (WNK3) was 92%, the activity at 1 µM (AMPK-alpha1) was 100% and the activity at 1 µM (TGFBR2; 35 at 1 µM, read-out: % inhibition) was 18%. The inhibition at 1 µM (TGFBR2; KinomeScan, screened at 1 μM, read-out: kinases inhibited at 1 μM: TGFBR2) was 82%, the activity at 1 µM [2] was 100% and the activity at 1 µM (GRK3) was 76%. For the same compound, the activity at 1 µM (CLK3) was 100%, the activity at 1 µM (SRPK3) was 100% and the activity at 1 µM (RIOK1) was 100%. For the same compound, the activity at 1 µM (EPHA3) was 100%.
